Target: S1P1/EDG1 (Homo sapiens, UniProt P21453)
Experiment: S1P1 CRE-bla CHOK1 reporter assay (inhibition of Forskolin induced cAMP)
Type: cell-based
Settings: agonist activity range, Table 2; read-out: S1P1 ACTIVITY
Summary of the method: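 Stable CRE-bla CHO-K1 clone expressing human S1P1, serum-starved (0.5% stripped serum) 18 h, then treated with compound (10-point curve) plus 2 μM forskolin for 4 h at 37 °C. β-lactamase FRET ratio (458/522 nm) read after 2 h substrate loading; EC50 for inhibition of forskolin-induced cAMP by non-linear regression.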

Chain of S1P1/EDG1 (P21453 whole entry): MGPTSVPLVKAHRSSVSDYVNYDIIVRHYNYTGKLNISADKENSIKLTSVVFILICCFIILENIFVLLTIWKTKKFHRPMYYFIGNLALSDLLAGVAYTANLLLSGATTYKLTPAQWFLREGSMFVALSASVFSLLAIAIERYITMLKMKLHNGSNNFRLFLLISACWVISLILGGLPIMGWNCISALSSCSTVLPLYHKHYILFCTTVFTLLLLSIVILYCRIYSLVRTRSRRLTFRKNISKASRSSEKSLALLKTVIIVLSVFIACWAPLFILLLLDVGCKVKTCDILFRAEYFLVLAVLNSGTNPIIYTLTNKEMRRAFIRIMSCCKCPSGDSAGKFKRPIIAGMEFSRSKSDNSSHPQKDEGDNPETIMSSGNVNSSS

CC(C)Oc1ccc(-c2ncc(-c3cccc4c3CC[C@@H]4NS(=O)(=O)CCN3CCC(O)CC3)s2)cc1C#N [Compound 146]
EC50: 0.5 to 5 nM

COC(=O)CC1CCN(CCS(=O)(=O)N[C@H]2CCc3c(-c4cnc(-c5ccc(OC(C)C)c(C#N)c5)s4)cccc32)CC1 [Compound 147]
EC50: 0.5 to 5 nM

CC(C)Oc1ccc(-c2ncc(-c3cccc4c3CC[C@@H]4NS(=O)(=O)CCN3CCC(CC(=O)O)CC3)s2)cc1C#N [Compound 148]
EC50: 0.5 to 5 nM

CC(C)Oc1ccc(-c2ncc(-c3cccc4c3CC[C@@H]4NS(=O)(=O)CCN3CCC(CO)CC3)s2)cc1C#N [Compound 149]
EC50: 0.5 to 5 nM

CC(C)Oc1ccc(-c2ncc(-c3cccc4c3CC[C@@H]4NS(=O)(=O)CCN3CC(O)C3)s2)cc1C#N [Compound 150]
EC50: 0.5 to 5 nM

CC(C)Oc1ccc(-c2ncc(-c3cccc4c3CC[C@@H]4NS(=O)(=O)CCN3CCNCC3)s2)cc1C#N [Compound 151]
EC50: > 5 nM

CC(C)Oc1ccc(-c2ncc(-c3cccc4c3CC[C@@H]4NS(=O)(=O)CCN3CCC(N(C)C)CC3)s2)cc1C#N [Compound 153]
EC50: > 5 nM

COC(=O)CS(=O)(=O)N[C@H]1CCc2c(-c3cnc(-c4ccc(OC(C)C)c(C#N)c4)s3)cccc21 [Compound 155, (S)-methyl 2-(N-(4-(2-(3-cyano-4-isopropoxyphenyl)thiazol-5-yl)-2,3-dihydro-1H-inden-1-yl)sulfamoyl)acetate]
EC50: 0.5 to 5 nM

COC(=O)CCS(=O)(=O)N[C@H]1CCc2c(-c3cnc(-c4ccc(OC(C)C)c(C#N)c4)s3)cccc21 [Compound 156]
EC50: 0.05 to 0.5 nM

CC(C)Oc1ccc(-c2ncc(-c3cccc4c3CC[C@@H]4NS(=O)(=O)CC(=O)O)s2)cc1C#N [Compound 159, (S)-2-(N-(4-(2-(3-cyano-4-isopropoxyphenyl)thiazol-5-yl)-2,3-dihydro-1H-inden-1-yl)sulfamoyl)acetic acid]
EC50: 0.05 to 0.5 nM

CC(C)Oc1ccc(-c2ncc(-c3cccc4c3CC[C@@H]4NS(=O)(=O)CCC(=O)O)s2)cc1C#N [Compound 160]
EC50: < 0.05 nM

CC(C)Oc1ccc(-c2ncc(-c3cccc4c3CC[C@@H]4NS(=O)(=O)CCC(=O)O)s2)cc1C#N [Compound 161]
EC50: 0.05 to 0.5 nM

CC(C)Oc1ccc(-c2ncc(-c3cccc4c3CC[C@@H]4NS(=O)(=O)CC(=O)N3CC(O)C3)s2)cc1C#N [Compound 163]
EC50: 0.05 to 0.5 nM

CC(C)Oc1ccc(-c2ncc(-c3cccc4c3CC[C@@H]4NS(=O)(=O)CCO)s2)cc1C#N [Compound 165, (S)-N-(4-(2-(3-cyano-4-isopropoxyphenyl)thiazol-5-yl)-2,3-dihydro-1H-inden-1-yl)-2-hydroxyethanesulfonamide]
EC50: 0.5 to 5 nM

CC(C)Oc1ccc(-c2ncc(-c3cccc4c3CC[C@@H]4NS(N)(=O)=O)s2)cc1C#N [Compound 167, (S)-N-(4-(2-(3-cyano-4-isopropoxyphenyl)thiazol-5-yl)-2,3-dihydro-1H -inden-1-yl)sulfamide]
EC50: 0.05 to 0.5 nM

CC(C)Oc1ccc(-c2ncc(-c3cccc4c3CC[C@@H]4NC(=O)N(C)C)s2)cc1C#N [Compound 168]
EC50: 0.05 to 0.5 nM

CC(C)Oc1ccc(-c2ncc(-c3cccc4c3CC[C@@H]4NC(=O)N(C)C)s2)cc1C#N [Compound 169]
EC50: 0.5 to 5 nM

CC(C)Oc1ccc(-c2ncc(-c3cccc4c3CC[C@@H]4NC(=O)N3CC(O)C3)s2)cc1C#N [Compound 170]
EC50: 0.5 to 5 nM

CC(C)Oc1ccc(-c2ncc(-c3cccc4c3CC[C@@H]4NC(=O)N3CC(O)C3)s2)cc1C#N [Compound 171]
EC50: 0.05 to 0.5 nM

CC(C)Oc1ccc(-c2ncc(-c3cccc4c3CC[C@@H]4NC(=O)N3CCCC3)s2)cc1C#N [Compound 173, (S)-N-(4-(2-(3-cyano-4-isopropoxyphenyl)thiazol-5-yl)-2,3-dihydro-1H-inden-1-yl)pyrrolidine-1-carboxamide]
EC50: 0.5 to 5 nM

CC(C)Oc1ccc(-c2ncc(-c3cccc4c3CC[C@@H]4NC(=O)N3CC[C@@H](O)C3)s2)cc1C#N [Compound 174]
EC50: 0.05 to 0.5 nM

CC(C)Oc1ccc(-c2ncc(-c3cccc4c3CC[C@@H]4NC(=O)N3CC[C@H](O)C3)s2)cc1C#N [Compound 175]
EC50: 0.5 to 5 nM

CC(C)Oc1ccc(-c2ncc(-c3cccc4c3CC[C@@H]4NC(=O)N3CC[C@@H](O)C3)s2)cc1C#N [Compound 176]
EC50: 0.5 to 5 nM

CC(C)Oc1ccc(-c2ncc(-c3cccc4c3CC[C@@H]4NC(=O)N3CC[C@H](O)C3)s2)cc1C#N [Compound 177]
EC50: 0.05 to 0.5 nM

CC(C)Oc1ccc(-c2ncc(-c3cccc4c3CC[C@@H]4NC(=O)N3CC[C@@H](N)C3)s2)cc1C#N [Compound 178]
EC50: 0.05 to 0.5 nM

CC(C)Oc1ccc(-c2ncc(-c3cccc4c3CC[C@@H]4NC(=O)N3CC[C@H](N)C3)s2)cc1C#N [Compound 179]
EC50: 0.5 to 5 nM

CC(C)Oc1ccc(-c2ncc(-c3cccc4c3CC[C@@H]4NC(=O)N3CC[C@H](N)C3)s2)cc1C#N [Compound 180]
EC50: > 5 nM

CC(C)Oc1ccc(-c2ncc(-c3cccc4c3CC[C@@H]4NC(=O)N3CC[C@@H](N)C3)s2)cc1C#N [Compound 181]
EC50: > 5 nM

CC(C)Oc1ccc(-c2ncc(-c3cccc4c3CC[C@@H]4NC(=O)N3CC[C@H](N(C)C)C3)s2)cc1C#N [Compound 182]
EC50: 0.5 to 5 nM

CC(C)Oc1ccc(-c2ncc(-c3cccc4c3CC[C@@H]4NC(=O)N3CC[C@@H](N(C)C)C3)s2)cc1C#N [Compound 183]
EC50: 0.5 to 5 nM

CC(C)Oc1ccc(-c2ncc(-c3cccc4c3CC[C@@H]4NC(=O)N3CC[C@H](N(C)C)C3)s2)cc1C#N [Compound 184]
EC50: > 5 nM

CC(C)Oc1ccc(-c2ncc(-c3cccc4c3CC[C@@H]4NC(=O)N3CC[C@@H](N(C)C)C3)s2)cc1C#N [Compound 185]
EC50: > 5 nM

CC(C)Oc1ccc(-c2ncc(-c3cccc4c3CC[C@@H]4NC(=O)N3CCOCC3)s2)cc1C#N [Compound 187]
EC50: 0.5 to 5 nM

CC(C)Oc1ccc(-c2ncc(-c3cccc4c3CC[C@@H]4NC(=O)N3CCNCC3)s2)cc1C#N [Compound 188]
EC50: 0.5 to 5 nM

CC(C)Oc1ccc(-c2ncc(-c3cccc4c3CC[C@@H]4NC(=O)N3CCNCC3)s2)cc1C#N [Compound 189]
EC50: > 5 nM

CC(C)Oc1ccc(-c2ncc(-c3cccc4c3CC[C@@H]4NC(=O)N3CCN(C)CC3)s2)cc1C#N [Compound 190]
EC50: 0.5 to 5 nM

CC(C)Oc1ccc(-c2ncc(-c3cccc4c3CC[C@@H]4NC(=O)N3CCN(C)CC3)s2)cc1C#N [Compound 191]
EC50: > 5 nM

CC(C)Oc1ccc(-c2ncc(-c3cccc4c3CC[C@@H]4NC(=O)N3CCC(N(C)C)CC3)s2)cc1C#N [Compound 192]
EC50: > 5 nM

CC(C)Oc1ccc(-c2ncc(-c3cccc4c3CC[C@@H]4NC(=O)N3CCC(CO)CC3)s2)cc1C#N [Compound 194]
EC50: 0.5 to 5 nM

CC(C)Oc1ccc(-c2ncc(-c3cccc4c3CC[C@@H]4NC(=O)N3CCC[C@H](O)C3)s2)cc1C#N [Compound 196]
EC50: 0.5 to 5 nM

CC(C)Oc1ccc(-c2ncc(-c3cccc4c3CC[C@@H]4NC(=O)N3CCC[C@H](O)C3)s2)cc1C#N [Compound 197]
EC50: 0.5 to 5 nM

CC(C)Oc1ccc(-c2ncc(-c3cccc4c3CC[C@@H]4NC(=O)N3CCC[C@H](O)C3)s2)cc1C#N [Compound 198]
EC50: 0.05 to 0.5 nM

CC(C)Oc1ccc(-c2ncc(-c3cccc4c3CC[C@@H]4NC(=O)N3CCC[C@H](O)C3)s2)cc1C#N [Compound 199]
EC50: 0.05 to 0.5 nM

CC(C)Oc1ccc(-c2ncc(-c3cccc4c3CC[C@@H]4NC(=O)N3CCC(CC(=O)O)CC3)s2)cc1C#N [Compound 200]
EC50: 0.05 to 0.5 nM

CC(C)Oc1ccc(-c2ncc(-c3cccc4c3CC[C@@H]4NC(=O)N3CCC(O)CC3)s2)cc1C#N [Compound 202]
EC50: 0.5 to 5 nM

COC(=O)CC1CCN(C(=O)N[C@H]2CCc3c(-c4cnc(-c5ccc(OC(C)C)c(C#N)c5)s4)cccc32)CC1 [Compound 204]
EC50: 0.5 to 5 nM

CC(C)Oc1ccc(-c2ncc(-c3cccc4c3CC[C@@H]4N3CCC3)s2)cc1C#N [Compound 206]
EC50: 0.05 to 0.5 nM

CC(C)Oc1ccc(-c2ncc(-c3cccc4c3CCC4N3CC(O)C3)s2)cc1C#N (stereo not shown) [Compound 207, 5-(5-(1-(3-hydroxyazetidin-1-yl)-2,3-dihydro-1H-inden-4-yl)thiazol-2-yl)-2-isopropoxybenzonitrile]
EC50: 0.5 to 5 nM

CC(C)Oc1ccc(-c2ncc(-c3cccc4c3CCC4N3CCCC3)s2)cc1C#N (stereo not shown) [Compound 208]
EC50: 0.5 to 5 nM

CC(C)Oc1ccc(-c2ncc(-c3cccc4c3CCC4N3CC[C@@H](O)C3)s2)cc1C#N (stereo partly shown) [Compound 209]
EC50: 0.5 to 5 nM

CC(C)Oc1ccc(-c2ncc(-c3cccc4c3CCC4N3CC[C@H](O)C3)s2)cc1C#N (stereo partly shown) [Compound 210]
EC50: 0.5 to 5 nM

CC(C)Oc1ccc(-c2ncc(-c3cccc4c3CCC4N3CC[C@H](N)C3)s2)cc1C#N (stereo partly shown) [Compound 211]
EC50: 0.5 to 5 nM

CC(C)Oc1ccc(-c2ncc(-c3cccc4c3CCC4N3CC[C@@H](N)C3)s2)cc1C#N (stereo partly shown) [Compound 212]
EC50: > 5 nM

CC(C)Oc1ccc(-c2ncc(-c3cccc4c3CCC4N3CCCCC3)s2)cc1C#N (stereo not shown) [Compound 213]
EC50: 0.5 to 5 nM

CC(C)Oc1ccc(-c2ncc(-c3cccc4c3CCC4N3CCOCC3)s2)cc1C#N (stereo not shown) [Compound 214]
EC50: 0.5 to 5 nM

CC(C)Oc1ccc(-c2ncc(-c3cccc4c3CCC4N3CCNCC3)s2)cc1C#N (stereo not shown) [Compound 215]
EC50: 0.5 to 5 nM

CC(C)Oc1ccc(-c2ncc(-c3cccc4c3CCC4N3CCN(C)CC3)s2)cc1C#N (stereo not shown) [Compound 216]
EC50: 0.5 to 5 nM

CC(C)Oc1ccc(-c2ncc(-c3cccc4c3CCC4NC3CCOCC3)s2)cc1C#N (stereo not shown) [Compound 217]
EC50: > 5 nM

CC(C)Oc1ccc(-c2ncc(-c3cccc4c3CCC4NC3CCCCC3)s2)cc1C#N (stereo not shown) [Compound 218]
EC50: > 5 nM

CNS(=O)(=O)CCNC1CCc2c(-c3cnc(-c4ccc(OC(C)C)c(C#N)c4)s3)cccc21 (stereo not shown) [Compound 219]
EC50: 0.05 to 0.5 nM

CC(C)Oc1ccc(-c2ncc(-c3cccc4c3CC[C@@H]4NCCS(C)(=O)=O)s2)cc1C#N [Compound 221, (S)-2-isopropoxy-5-(5-(1-((2-(methylsulfonyl)ethyl)amino)-2,3-dihydro-1H-inden-4-yl)thiazol-2-yl)benzonitrile]
EC50: 0.05 to 0.5 nM
